Experimental findings from PMC3180450, “Structural Insights into the Mechanism of Protein O-Fucosylation” (PLoS ONE, 2011) are described below.

Each structure is given as a SMILES string. Where a chain is given by its changes, count along the chain named. Like-named read-outs stand apart in the source and are kept apart here.

Common to all, as to format: binding
Assay [1] deals with T1, CePOFUT1 (Caenorhabditis elegans, UniProt Q18014).
T1 construct: gene pfut-1; codon-optimized synthetic gene in pPICZalphaA with KEX2 cleavage signal, secreted from Pichia pastoris X-33; monomer
T1 sequence (Q18014 26-382): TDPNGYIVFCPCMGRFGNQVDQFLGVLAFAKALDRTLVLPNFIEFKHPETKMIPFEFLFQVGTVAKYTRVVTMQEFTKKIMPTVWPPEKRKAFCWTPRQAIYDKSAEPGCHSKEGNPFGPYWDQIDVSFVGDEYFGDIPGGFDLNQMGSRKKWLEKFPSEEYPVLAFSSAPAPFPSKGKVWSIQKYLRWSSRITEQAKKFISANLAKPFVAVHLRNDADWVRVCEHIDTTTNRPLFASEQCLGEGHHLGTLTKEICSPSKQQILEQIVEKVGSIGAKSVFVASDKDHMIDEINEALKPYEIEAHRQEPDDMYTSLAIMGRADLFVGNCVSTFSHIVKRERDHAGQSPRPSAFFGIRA
The assay can be described thus: thermal shift assay (ANS fluorescence). The text has this: (§1) thermal shift assay (ANS fluorescence) on CePOFUT1

In assay [2] the target is T1, CePOFUT1. The assay can be described thus: isothermal titration calorimetry. The conditions noted are these: read-out: K d (μM)GDP-fucose. The text has this:
(§2) isothermal titration calorimetry on CePOFUT1

Assay [3] deals with T2, CePOFUT1 (Caenorhabditis elegans, UniProt Q18014, D309N).
T2 construct: gene pfut-1; codon-optimized synthetic gene in pPICZalphaA with KEX2 cleavage signal, secreted from Pichia pastoris X-33; monomer
T2 sequence (Q18014 26-382 D309N): T1 sequence (Q18014 26-382) with D284N
The assay can be described thus: thermal shift assay (ANS fluorescence). The conditions noted are these: read-out: ΔT m (°C)1 mM GDP.
Excerpt: as §1

In assay [4] the target is T3, CePOFUT1 (Caenorhabditis elegans, UniProt Q18014, F261A).
T3 construct: gene pfut-1; codon-optimized synthetic gene in pPICZalphaA with KEX2 cleavage signal, secreted from Pichia pastoris X-33; monomer
T3 sequence (Q18014 26-382 F261A): T1 sequence (Q18014 26-382) with F236A
The assay can be described thus: isothermal titration calorimetry.
Excerpt: as §2

Assay [5] has as its target T4, CePOFUT1 (Caenorhabditis elegans, UniProt Q18014, R40A).
T4 construct: gene pfut-1; codon-optimized synthetic gene in pPICZalphaA with KEX2 cleavage signal, secreted from Pichia pastoris X-33; monomer
T4 sequence (Q18014 26-382 R40A): T1 sequence (Q18014 26-382) with R15A
Kind of assay: isothermal titration calorimetry.
Excerpt: as §2
For orientation: In ITC the heat of successive injections is recorded.

For assay [6], the target named is T5, CePOFUT1 (Caenorhabditis elegans, UniProt Q18014, R240K).
T5 construct: gene pfut-1; codon-optimized synthetic gene in pPICZalphaA with KEX2 cleavage signal, secreted from Pichia pastoris X-33; monomer
T5 sequence (Q18014 26-382 R240K): T1 sequence (Q18014 26-382) with R215K
Kind of assay: isothermal titration calorimetry.
Excerpt: as §2

In assay [7] the target is T6, CePOFUT1 (Caenorhabditis elegans, UniProt Q18014, D244A).
T6 construct: gene pfut-1; codon-optimized synthetic gene in pPICZalphaA with KEX2 cleavage signal, secreted from Pichia pastoris X-33; monomer
T6 sequence (Q18014 26-382 D244A): T1 sequence (Q18014 26-382) with D219A
Kind of assay: isothermal titration calorimetry.
Excerpt: as §2

Assay [8] addresses T7, CePOFUT1 (Caenorhabditis elegans, UniProt Q18014, D242A).
T7 construct: gene pfut-1; codon-optimized synthetic gene in pPICZalphaA with KEX2 cleavage signal, secreted from Pichia pastoris X-33; monomer
T7 sequence (Q18014 26-382 D242A): T1 sequence (Q18014 26-382) with D217A
Kind of assay: isothermal titration calorimetry.
Excerpt: as §2

The target in assay [9] is T8, CePOFUT1 (Caenorhabditis elegans, UniProt Q18014, F199A).
T8 construct: gene pfut-1; codon-optimized synthetic gene in pPICZalphaA with KEX2 cleavage signal, secreted from Pichia pastoris X-33; monomer
T8 sequence (Q18014 26-382 F199A): T1 sequence (Q18014 26-382) with F174A
The assay can be described thus: isothermal titration calorimetry.
Excerpt: as §2

The target in assay [10] is T9, CePOFUT1 (Caenorhabditis elegans, UniProt Q18014, W245A).
T9 construct: gene pfut-1; codon-optimized synthetic gene in pPICZalphaA with KEX2 cleavage signal, secreted from Pichia pastoris X-33; monomer
T9 sequence (Q18014 26-382 W245A): T1 sequence (Q18014 26-382) with W220A
Kind of assay: isothermal titration calorimetry.
Excerpt: as §2

Assay [11] concerns the target T10, CePOFUT1 (Caenorhabditis elegans, UniProt Q18014, F357A).
T10 construct: gene pfut-1; codon-optimized synthetic gene in pPICZalphaA with KEX2 cleavage signal, secreted from Pichia pastoris X-33; monomer
T10 sequence (Q18014 26-382 F357A): T1 sequence (Q18014 26-382) with F332A
The assay can be described thus: isothermal titration calorimetry.
Excerpt: as §2

For assay [12], the target named is T11, CePOFUT1 (Caenorhabditis elegans, UniProt Q18014, N43A).
T11 construct: gene pfut-1; codon-optimized synthetic gene in pPICZalphaA with KEX2 cleavage signal, secreted from Pichia pastoris X-33; monomer
T11 sequence (Q18014 26-382 N43A): T1 sequence (Q18014 26-382) with N18A
Kind of assay: isothermal titration calorimetry.
Excerpt: as §2

Consider `C[C@@H]1O[C@H](OP(=O)(O)OP(=O)(O)OC[C@H]2O[C@@H](n3cnc4c(=O)[nH]c(N)nc43)[C@H](O)[C@@H]2O)[C@@H](O)[C@H](O)[C@@H]1O` [GDP-fucose], for which the ΔTm at 1000 µM on CePOFUT1 [1] (read-out: ΔT m (°C)1 mM GDP-fucose) stood at 2.19 °C. Also, the Kd on CePOFUT1 [2] turned out to be 0.23 ± 0.04 µM.

With `Nc1nc2c(ncn2[C@@H]2O[C@H](COP(=O)(O)OP(=O)(O)O)[C@@H](O)[C@H]2O)c(=O)[nH]1` [GDP], the figures for the ΔTm at 1000 µM at CePOFUT1 [3] and at CePOFUT1 [1] (read-out: ΔT m (°C)1 mM GDP) were 5.01 °C and 4.21 °C, respectively. Besides, the Kd on CePOFUT1 [4] came to 120 ± 70 nM; at CePOFUT1 [5], 3100 ± 530 nM; at CePOFUT1 [6] it was 61200 ± 10500 nM; on CePOFUT1 [7], 100 ± 10 nM; on CePOFUT1 [8], 90 ± 20 nM; at CePOFUT1 [9], 180 ± 30 nM. Further, the Kd is 1600 ± 400 nM on CePOFUT1 [10], 26900 ± 5000 nM on CePOFUT1 [11] and 300 ± 90 nM at CePOFUT1 [12].
